Results as given in patent publication US20080255206A1, “Rxr Agonists and Antagonists, Alone or in Combination with Ppar Ligands, in the Treatment of Metabolic and Cardiovascular Diseases” (priority 2005, published 2008).

What was measured:
[1] = target: T1, RXRγ (Homo sapiens, UniProt P48443); assay: Retinoid activation assay, RXRγ (Schneider SL-3 cells, luciferase reporter); assay type: cell-based; details: read-out: Activation EC50 RXR γ
T1 sequence (P48443 1-463): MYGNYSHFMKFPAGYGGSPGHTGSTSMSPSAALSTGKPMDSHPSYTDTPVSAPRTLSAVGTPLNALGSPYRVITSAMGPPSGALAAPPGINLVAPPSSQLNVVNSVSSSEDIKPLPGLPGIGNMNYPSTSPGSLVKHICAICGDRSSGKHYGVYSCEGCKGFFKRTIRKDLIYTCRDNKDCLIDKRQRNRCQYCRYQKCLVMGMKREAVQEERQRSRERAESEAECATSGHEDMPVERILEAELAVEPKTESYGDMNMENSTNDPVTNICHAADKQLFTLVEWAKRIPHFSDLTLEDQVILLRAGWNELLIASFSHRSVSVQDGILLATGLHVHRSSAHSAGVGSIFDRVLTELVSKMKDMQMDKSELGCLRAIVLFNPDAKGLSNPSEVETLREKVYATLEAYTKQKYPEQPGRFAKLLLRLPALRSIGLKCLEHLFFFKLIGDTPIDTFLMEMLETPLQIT
Method: (§1) Full length RXR cDNA is used for transfection. As reporter system, the luciferase gene is used in a construct with three copies of a RXR response element from rat CRBP gene, (formerly RARE from betaRAR gene), fused to alcoholdehydrogenase gene promoter in the plasmid pGL2-basic. Schneider SL-3 cells from Drosophila are transiently transfected 3-4 h before the experiment by the Ca-phosphate-DNA coprecipitation method. […] At the end of the incubation, the cell supernatants are assayed for luciferase activity. Results are given as EC50 (nM), the concentration leading to half-maximal activation.

[2] = target: T2, RXRα (Homo sapiens, UniProt P19793); assay: Retinoid activation assay, RXRα (Schneider SL-3 cells, luciferase reporter); assay type: cell-based; details: read-out: Activation EC50 RXR α
T2 sequence (P19793 1-462): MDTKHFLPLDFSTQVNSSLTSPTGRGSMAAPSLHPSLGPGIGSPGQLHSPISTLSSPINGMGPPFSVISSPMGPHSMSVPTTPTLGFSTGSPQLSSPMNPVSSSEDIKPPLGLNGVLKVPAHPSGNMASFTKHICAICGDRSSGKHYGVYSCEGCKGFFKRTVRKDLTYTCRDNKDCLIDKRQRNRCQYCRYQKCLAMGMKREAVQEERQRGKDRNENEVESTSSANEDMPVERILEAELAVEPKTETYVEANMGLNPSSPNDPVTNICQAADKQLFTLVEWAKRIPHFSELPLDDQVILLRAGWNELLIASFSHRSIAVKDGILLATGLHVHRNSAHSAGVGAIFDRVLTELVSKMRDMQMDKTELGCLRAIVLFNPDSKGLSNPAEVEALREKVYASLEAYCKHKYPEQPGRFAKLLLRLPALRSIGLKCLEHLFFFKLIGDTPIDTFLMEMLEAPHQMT
Method: as §1

[3] = target: T2, RXRα; assay: Retinoid binding assay, RXRα; set-up: made in house; host or cells: E. coli; details: [3H] 9-cis retinoic acid 20 nM; read-out: Binding Affinity IC50 RXR α
Excerpt: (§2) The DEF domains of RAR's and the full length RXR's, expressed in E.coli, are used to measure competitive retinoid binding. […] 9-cis retinoic acid (for RXR's), respectively. […] Separation of bound from free radioactivity is achieved by charcoal/dextran (RAR's) or by desalting columns (RXR's). […] Retinoid Activation Assays

[4] = target: T3, PPARγ/RXRα Heterodimer (Homo sapiens, UniProt P19793); assay: PPARγ/RXRα heterodimer activation (transactivation) assay; assay type: cell-based
T3 construct: co-transfected with plasmids expressing the full length RXR heteropartner receptor; expressed in transfected cells
T3 sequence (P19793 1-462): T2 sequence (P19793 1-462)
T3 sequence (P37231 1-505 partner): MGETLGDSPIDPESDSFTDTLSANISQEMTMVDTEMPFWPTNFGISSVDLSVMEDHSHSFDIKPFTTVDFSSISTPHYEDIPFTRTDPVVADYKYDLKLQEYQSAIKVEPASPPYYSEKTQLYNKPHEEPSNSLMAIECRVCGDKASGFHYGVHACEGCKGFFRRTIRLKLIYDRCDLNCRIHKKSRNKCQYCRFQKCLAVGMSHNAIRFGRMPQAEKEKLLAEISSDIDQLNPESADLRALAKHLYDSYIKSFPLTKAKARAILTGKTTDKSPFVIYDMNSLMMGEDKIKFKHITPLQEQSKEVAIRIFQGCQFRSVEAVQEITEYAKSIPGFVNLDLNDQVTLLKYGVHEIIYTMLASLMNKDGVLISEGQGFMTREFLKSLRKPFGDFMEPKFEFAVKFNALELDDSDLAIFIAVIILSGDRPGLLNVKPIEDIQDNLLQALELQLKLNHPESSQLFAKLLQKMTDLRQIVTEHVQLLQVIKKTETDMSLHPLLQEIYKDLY
Excerpt: (§3) Nuclear hormone receptor (NHR) ligand dependent transcriptional transactivation assay.
Heterodimer reporter assays are potentially more important selection criteria for synthetic agonistic NHR ligands as they embody a more natural situation. Basically plasmids expressing the recombinant full length NHR are co-transfected with plasmids expressing the full length RXR heteropartner receptor and a reporter plasmid containing several copies of the natural responsive elements for the respective NHR driving the luciferase reporter gene.

[5] = target: T1, RXRγ; assay: Retinoid binding assay, RXRγ; set-up: made in house; host or cells: E. coli; details: [3H] 9-cis retinoic acid 20 nM; read-out: Binding Affinity IC50 RXR γ
Excerpt: as §2

[6] = target: T4, RXRα Homodimer (Homo sapiens, UniProt P19793); assay: RXRα homodimer activation (transactivation) assay; assay type: cell-based
T4 construct: expressed in transfected cells; host or cells: mammalian cells (BHK21, CV1, etc)
T4 sequence (P19793 1-462): T2 sequence (P19793 1-462)
Excerpt: as §3
This secondary in vitro functional assay to characterize hits from the primary ligand binding screens is a GAL4-LBD transactivation assay. The Gal4-LBD protein consists of an in frame fusion of the transcription factor galactose 4 DNA binding domain from S.cerevisiae with the ligand binding domain (LBD) of a particular NHR. Briefly, a plasmid construct expressing the recombinant chimeric receptor is co-transfected into mammalian cells (BHK21, CV1, etc) with a luciferase reporter plasmid containing several copies in tandem of the GAL4 binding sites (promoter recognition elements) upstream from the minimal promoter driving the luciferase gene. The transfected cells are treated with compounds for 12-24 hours, lysates are produced and assayed for luciferase activity and normalized to internal standards such as GH, growth hormone or SEAP, secreted alkaline phosphatase. Ligand binding stabilizes the LBD conformation that recruits endogenous co-factors that mediate eventually the increased transcriptional activity of the luciferase reporter gene. By comparing the activation profile of a reference ligand or a natural ligand, the EC50 values for agonistic activity of a particular ligand can be measured. The extent of activation that can be measured is indicative of a partial, respectively full agonistic activity of a ligand. […]

EC50 [1]: ≥ 10 µM | EC50 [2]: ≥ 10 µM | IC50 [3]: 0.052 µM | EC50 [4]: > 10 µM | IC50 [5]: 0.071 µM | EC50 [6]: > 10 µM
Structure (SMILES): CCCOc1c([C@@H]2C[C@@H]2/C=C/C(C)=C/C(=O)O)cc(C(C)(C)C)cc1C(C)(C)C (racemic) [Compound 20, (2E,4E)-5-[2-(3,5-Di-tert-butyl-2-propoxy-phenyl)-cyclopropyl]-3-methyl-penta-2,4-dienoic acid]
